Reference: patent publication US20090270431A1, “Cyclopentenol Nucleoside Compounds Intermediates for their Synthesis and Methods of Treating Viral Infections” (THE UNIVERSITY OF GEORGIA RESEARCH FOUNDATION, priority 2005, published 2009)
“Also recorded” adds a separate entry of the source. Like-named read-outs stand apart in the source and are kept apart here.

Assays:
HCV RNA replicon = HCV RNA replicon assay; assay type: cell-based, hepatitis C virus (HCV); details: for Activity (% inhibition virus control) / outcome of primary test: primary, single-dilution test; for EC50: Hepatitis C virus
Protocol: A number of […] 7-deazaneplanocin compounds were tested in vitro to determine activity against hepatitis C virus (HCV).

[1] = cytotoxicity in the HCV RNA replicon assay; details: for Cytotoxicity (% cell control): primary, single-dilution test
SARS virus = assay type: cell-based; details: against SARS virus
[2] = stability of the isolated compound on standing; assay type: physicochemical; details: room temperature, over several days
Vaccinia = experiment: microbe, parasite or virus in culture; assay type: cell-based, vaccinia virus
Cowpox = experiment: microbe, parasite or virus in culture; assay type: cell-based, cowpox virus
HBV strain WT = experiment: HBV DR Assay, strain WT; assay type: cell-based

With `Nc1ncnc2c1c(F)cn2[C@@H]1C=C(CO)C(O)C1O` (stereo partly drawn) the “Activity (% inhibition virus control)” value (HCV RNA replicon) was 9.5%, the “outcome of primary test” value (HCV RNA replicon) was “Inactive in primary, single-dilution test” and the “Cytotoxicity (% cell control)” value [1] was 112.7%.
With `Nc1ncnc2c1c(Cl)cn2[C@@H]1C=C(CO)C(O)C1O` (stereo partly drawn) the EC50 (HCV RNA replicon; HT @ 100 μM) was 14.7 µM, the “Activity (% inhibition virus control)” value (HCV RNA replicon) was 70.6% and the IC50 ([1]; HT @ 100 μM) was 50.1 µM. The “Cytotoxicity (% cell control)” value [1] was 81.2%.
For `Nc1ncnc2c1c(Br)cn2[C@@H]1C=C(CO)C(O)C1O` (stereo partly drawn), the EC50 (HCV RNA replicon; HT20, HT @ 20 μM, read-out: EC50) was 10.5 µM, the EC50 (HCV RNA replicon; HT @ 100 μM, read-out: EC50) was 16.7 µM and the “Activity (% inhibition virus control)” value (HCV RNA replicon) was 80.9%. For the same molecule, the IC50 ([1]; HT20, HT @ 20 μM) was over 20 µM, the IC50 ([1]; HT @ 100 μM) was 41.7 µM and the “Cytotoxicity (% cell control)” value [1] was 76.3%.
In the case of `Nc1ncnc2c1c(I)cn2[C@@H]1C=C(CO)C(O)C1O` (stereo partly drawn), the EC50 (HCV RNA replicon; HT @ 5 μM, read-out: EC50) is reported as 3.07 µM, the EC50 (HCV RNA replicon; HT @ 100 μM, read-out: EC50) is reported as 2.14 µM and the “Activity (% inhibition virus control)” value (HCV RNA replicon) is reported as 89.7%. For the same molecule, the IC50 ([1]; HT @ 5 μM) was over 5 µM, the IC50 ([1]; HT @ 100 μM) was 15 µM and the “Cytotoxicity (% cell control)” value [1] was 35.2%.
In the case of `Nc1ncnc2c1c([N+](=O)[O-])cn2[C@@H]1C=C(CO)C(O)C1O` (stereo partly drawn), the “Activity (% inhibition virus control)” value (HCV RNA replicon) is reported as 31.5% and the “Cytotoxicity (% cell control)” value [1] is reported as 101.5%.
With `N#Cc1cn([C@@H]2C=C(CO)C(O)C2O)c2ncnc(N)c12` (stereo partly drawn) the “Activity (% inhibition virus control)” value (HCV RNA replicon) was 0.5%, the “outcome of primary test” value (HCV RNA replicon) was “Inactive in primary, single-dilution test” and the “Cytotoxicity (% cell control)” value [1] was 103.3%.
For `NC(=O)c1cn([C@@H]2C=C(CO)C(O)C2O)c2ncnc(N)c12` (stereo partly drawn), the EC50 (HCV RNA replicon; HT not given, read-out: EC50) was 1.85 µM, the “Activity (% inhibition virus control)” value (HCV RNA replicon) was 93.5% and the IC50 ([1]; HT not given) was 11.8 µM. The “Cytotoxicity (% cell control)” value [1] was 44.2%.
In the case of `C=Cc1cn([C@@H]2C=C(CO)C(O)C2O)c2ncnc(N)c12` (stereo partly drawn), the “Activity (% inhibition virus control)” value (HCV RNA replicon) is reported as 49.2% and the “Cytotoxicity (% cell control)” value [1] is reported as 99.7%.
With `Nc1nc2c(ccn2[C@@H]2C=C(CO)C(O)C2O)c(=O)[nH]1` (stereo partly drawn) the “Activity (% inhibition virus control)” value (HCV RNA replicon) was 10.1%, the “outcome of primary test” value (HCV RNA replicon) was “Inactive in primary, single-dilution test” and the “Cytotoxicity (% cell control)” value [1] was 99.8%.
Work on “1-(4,5-Dihydroxy-3-hydroxymethyl-cyclopenten-2-enyl)-1H-[1,2,4]triazole-3-carboxylic acid amide [Compound 17a]” yielded an EC50 (SARS virus) of 21 µM.
With “7-Deaza-7-Amino-Neplanocin A [Compound 23]” the stability [2] was “not stable; also recorded: slowly decomposed in room temperature”.
For `Nc1ncnc2c1ccn2[C@@H]1C=C(CO)[C@@H](O)[C@H]1O` [7-deaza neplanocin A], the EC90 (Vaccinia; Vaccinia, HFF cells, CPE reduction assay) was 21.5 µM, the EC50 (Vaccinia; Vaccinia, HFF cells, CPE reduction assay, read-out: EC50) was 3.4 µM and the CC50 (HFF cells) was over 300 µM. The “cytotoxicity (none up to)” value (HFF cells) was over 300 µM, the EC90 (Cowpox; Cowpox, HFF cells, CPE reduction assay) was 4.6 µM and the EC50 (Cowpox; Cowpox, HFF cells, CPE reduction assay, read-out: EC50) was 1.2 µM.
With `CC(C)(C)C(=O)OCOP(=O)(COCCn1cnc2c(N)ncnc21)OCOC(=O)C(C)(C)C` [ADV] the EC50 (HBV strain WT) was 1.3 µM and the EC90 (HBV strain WT) was 6 µM.
With `Nc1ccn(C[C@@H](CO)OCP(=O)(O)O)c(=O)n1` [Cidofovir, reference compound] the EC50 (Vaccinia; Orthopoxvirus vaccinia, HFF) was 4 µM and the EC50 (Cowpox; Cowpox virus, HFF) was 5 µM.
